Laboratory results taken from patent US10668168B2, “Method for removing weakly bound functional moieties from cell targeting conjugates” (priority 2015, dated 2020).

These molecules were tested on NBD-4Py-Lx-trastuzumab conjugate (assay: Stripping efficiency of S- and N-donors: released NBD label from trastuzumab conjugate). Details: agent 10 mM final, 37 °C, 30 minutes stripping.
Format: physicochemical
Procedure: The percentage of released NBD label (excitation and emission wavelength of 485 nm and 535 nm, respectively) was determined spectrophotometrically. The conjugation mixture was precipitated with 2 volume equivalents acetonitrile followed by centrifugation of the formed suspension (5 minutes, 14K rpm). By measuring the fluorescence of the supernatant, the percentage of released NBD label was determined.
NBD-4Py-Lx-Cl (133 microliters, 5 mM in 20 mM NaCl, 20 equiv.) was added to a solution of trastuzumab, used in its commercial formulation, (238 microliters, 21 mg/ml) and HEPES buffer (12.3 microliters, pH 7.47, 20 mM final concentration). The mixture was placed in a THERMOMIXER® at 37° C. for 4 hours, followed by purification using a prewashed PD10 column which was eluted with 0.9% NaCl. The purified conjugate was incubated with PBS or the S and N-donors as listed above (10 mM final concentration) in a THERMOMIXER® at 37° C. for 30 minutes. With size exclusion chromatography conjugation was clearly observed. Furthermore no aggregation was observed. The NBD/mAb ratio of all the conjugates were between 4.0 and 4.2.
The percentage of the released NBD label was determined as described in Example B.

Structure (SMILES)	Released label (%)
CSCC[C@H](NC(C)=O)C(=O)O [N-acetyl-1-methionine]	12.2
N[C@@H](CS)C(=O)O [L-cysteine]	36.4
N#C[S-].[K+] [KSCN, potassium thiocyanate]	35.9
O=S([O-])([O-])=S.[Na+].[Na+] [NaSTS, sodium thiosulfate]	52.4
N[C@@H](Cc1c[nH]cn1)C(=O)O [Histidine]	5.9
